Test [1] relates to HUVEC. Nature of the test: Adherens junction assembly in HUVEC, immunofluorescence of VE-cadherin and catenins. Format: cell-based, human. The conditions noted are these: 500 nM, 1 hour. Here is the method: To investigate whether SPP regulates the formation of adherens junction in endothelial cells, HUVEC were plated at a density of 2×10^4 cells/em^2 for 2 days, starved in lipid-depleted medium and treated without (cont) or with SPP (500 nM for 1 hours). For these experiments, after treatment cells were washed with ice-cold PBS, fixed with 4% formaldehyde at room temperature or methanol at −20° C. for 15 minutes. In the case of formaldehyde fixation, cells were permeabilized with 0.2% TX-100. After washing with PBS, cells were stained with antibodies as follows: VE-cadherin ([…], Transduction Labs, San Diego, Calif.; 1 μg/mL, Santa Cruz Biotechnology, Inc., Santa Cruz, Calif.), α-catenin ([…], Transduction Labs), β-catenin (1.25 μg/mL, Transduction Labs; 0.4 μg/mL, Santa Cruz), γ-catenin ([…], Transduction Labs). The primary antibody staining was visualized with FITC-conjugated goat anti-rabbit or TRITC conjugated sheep anti-mouse (1:1000, Cappel, now owned by ICN, Costa Mesa, Calif.) for 30 minutes at room temperature, and imaged on a Zeiss Axiovert 100TV fluorescence microscope. […]

Test [2] deals with HUVEC. Nature of the test: C2-Ceramide-induced apoptosis of HUVEC (DNA fragmentation). The format is cell-based, human. The conditions noted are these: SPP 10 to 500 nM, 1 μM C2-Ceramide, 12 hours. Here is the method:
The ability of SPP to protect endothelial cells from apoptosis was investigated. In these experiments, HUVEC were treated with 1 μM C2-Ceramide for 12 hours and apoptosis was measured in the following manner: HUVEC were plated onto coverslips and allowed to grow for 2 days. Cells were washed three times with medium M199, and treated with 1 μM C2-Ceramide (Biomol) for 12 hours in the presence or absence of SPP. Subsequently, cells were fixed with methanol at −20° C. for 5 minutes, air dried, and stained with Hoechst 33258 dye (0.5 μg/mL for 5 minutes; Sigma Chemical Co., St. Louis, Mo.). The apoptotic nuclei were identified with the aid of a Zeiss Axiovert 100TB fluorescence microscope. For quantification, HUVEC were labeled with ^3Hmethyl-thymidine (5 μCi/mL, NEN DuPont) for 24 hours. Following three washes with medium M199, cells were treated with C2-Ceramide as above. 12 hours later, cells were extracted with lysis buffer (5 mM tris, pH 7.4, 2 mM EDTA, 0.5% TX-100) at 4° C. for 20 minutes. After centrifugation (15,000 g, 20 minutes), the radioactivity present in the supernatant and sediment was measured by liquid scintillation counting. The percentage of DNA fragmentation was determined as ((supernatant cpm)/(supernatant cpm+sediment cpm))×100%.
SPP+PTx and SPP+PD98059 (10 μM), respectively, for 2 hours prior to the addition of C2-Ceramide (1 μM) and SPP (10 to 500 nM). Data are mean±standard deviation of triplicate determinations from a representative experiment which was repeated two times. […] A similar effect was also seen when growth factor withdrawal, and 15-deoxy Δ^12,14 prostaglandin J2 were used as apoptotic stimuli (data not shown). […] Therefore SPP induced endothelial cell survival requires the Gi/ERK signaling pathway.

The test system of test [3] is MATRIGEL plugs implanted into athymic mice. Nature of the test: MATRIGEL implant model of subcutaneous angiogenesis in athymic mice. Format: in vivo. Here is the method: To disclose if SPP regulates angiogenesis in vivo, A MATRIGEL implant model of subcutaneous angiogenesis in […] mice was used. In these experiments, female […] mice (4-6 weeks old) were injected subcutaneously with 0.4 mL MATRIGEL (approximate protein concentration 9.9 mg/mL, Collaborative Research) premixed with vehicle (fatty acid-free BSA, 115 μg/mL, Sigma), or FGF-2 (1.3 μg/mL) in the absence or presence of various concentrations of SPP. Seven days later, MATRIGEL plugs were harvested along with underlying skin and the gross angiogenic response was recorded under a Zeiss Stemi SV6 dissecting microscope. For quantification, MATRIGEL plugs were fixed with 4% paraformaldehyde in PBS, dehydrated in ethanol and xylene, embedded in paraffin, and sections subjected to hematoxylin and eosin staining. Angiogenesis was quantified by direct counting of vessels containing red blood cells residing in the stroma interface and the MATRIGEL implant. Each treatment involved 4 mice. 2 random sections from each were quantified and represented as mean±standard deviation. […]
In these experiments, MATRIGEL plugs were fixed, dehydrated, embedded, and sections were subjected to hematoxylin and eosin staining. Angiogenesis was quantified by direct counting of vascular structures as described. Vascular density for each treatment was quantified and represented as mean±standard deviation (n=4). […]

The test system of test [4] is EDG-1. Description: EDG-1 phosphorylation in 32P-labeled HEK293EDG-1 cells. Format: cell-based. The conditions noted are these: 100 nM S1P. Here is the method: FIG. 26 is an SDS PAGE showing that S1P treatment induces EDG-1 phosphorylation. HEK293EDG-1 were labeled with [^32P]-orthophosphate, and stimulated with 100 nM S1P for indicated times. Some cultures were treated with 10 μM LY294002.
To label the EDG-1 receptor in HUVEC and HEK293EDG-1 cells, they were pre-incubated in phosphate-free DMEM (GIBCO-BRL) for 2 hr. Subsequently, cells were labeled with [^32P] orthophosphate (80 μCl/ml) for 3 hr. To examine the effect of P1-3 kinase, cultures were treated with wortmannin (100 nM) or LY294002 (10 μM) during tine last hour of labeling. After SPP stimulation, ^32P-labeled EDG-1 receptor was immunoprecipitated with either chicken anti-EDG-1 1gY or anti-M2, resolved on SDS-PAGE, and visualized by autoradiography.

Test [5] relates to bovine microvascular endothelial cells. Nature of the test: Morphogenesis of bovine microvascular endothelial cells. The format is cell-based. The conditions noted are these: SPP 100 nM to 1 μM, data not shown.
The target of test [6] is EDG-1 (Homo sapiens, UniProt P21453). Conditions: 32P-SPP, HEK293EDG-1 cells; read-out: dissociation constant, Kd, of SPP binding to EDG-1; cited from earlier work.
Chain of EDG-1 (Homo sapiens, UniProt P21453) (P21453 whole entry): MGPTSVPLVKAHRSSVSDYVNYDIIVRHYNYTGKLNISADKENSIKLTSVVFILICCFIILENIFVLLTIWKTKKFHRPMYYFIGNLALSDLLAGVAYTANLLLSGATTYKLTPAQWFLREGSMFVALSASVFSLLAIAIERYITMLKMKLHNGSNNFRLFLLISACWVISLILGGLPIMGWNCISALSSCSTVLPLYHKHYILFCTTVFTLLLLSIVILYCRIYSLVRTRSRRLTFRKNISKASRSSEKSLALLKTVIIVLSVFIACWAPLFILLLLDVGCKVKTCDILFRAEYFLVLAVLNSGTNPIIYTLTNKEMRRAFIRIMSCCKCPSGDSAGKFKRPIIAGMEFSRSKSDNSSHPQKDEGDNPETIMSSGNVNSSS

Each structure is given as a SMILES string. Values joined by “and” are separate entries in the source; they are usually repeats but may differ in a detail not shown here. Equal values may be shown once.

One may read the Kd as the concentration at which binding is half-saturated. On to `CCCCCCCCCCCCC/C=C/[C@@H](O)[C@@H](N)COP(=O)(O)O` [SPP, sphingosine-1-phosphate], for which the “VE-cadherin, α-, β- and γ-catenin localization at cell-cell junctions” value in the test with HUVEC [1] is listed as “dramatically increased”. The “protection from apoptosis induced by C2-Ceramide” value in the test with HUVEC [2] is listed as “significantly protected”. For the same compound, the “angiogenesis with SPP alone” value in test [3] (MATRIGEL plug without FGF-2) was “did not induce significant angiogenesis”. Moreover, the “FGF-2 induced angiogenesis (vascular density)” value in test [3] (SPP + FGF-2 1.3 μg/mL in MATRIGEL plug, seven days) is listed as “dramatically enhanced”. In the test with EDG-1 [4], the “phosphorylation of EDG-1” value is recorded as “induced a time-dependent phosphorylation”. For the same compound, the “morphogenesis of bovine microvascular endothelial cells” value in test [5] is “induced morphogenesis”. Also, the Kd at EDG-1 [6] is 8.1 nM and 8 nM.
